{"source": "patent US9816989B2", "about": "“Immunologically active polypeptide” (Institute of Arthritis Research, LLC, priority 2013, dated 2017)", "key": {"peripheral blood cells": {"system": "peripheral blood cells", "experiment": "Cytokine production by human peripheral blood cells in culture (MSD panel)", "assay_type": "cell-based", "protocol": "In order to examine the biological activity of IgX, cytokine production from human peripheral whole blood samples incubated with IgX was measured. Peripheral whole blood samples from three different donors (#66, 67, and 85) were obtained with appropriate informed consent and incubated with concentrations of IgX ranging from 0 to 200 ug/ml.\nProtein A purified IgX was prepared from placental sample BC, brought to 0.05 M phosphate, 0.15 M NaCl buffer, pH 7.4, treated with an endotoxin affinity column (ActiClean Etox™ from Sterogene, Carlsbad, Calif.) according to the supplier's instructions, and then sent to IBT Bioservices (Gaithersburg, Md.) for human peripheral blood testing. […] All peripheral blood cells were suspended in RPMI-1640 media. Various concentrations of IgX were incubated with peripheral blood cells from donor D66 for 18 hours, and then the samples were stimulated with 1 ug/ml of PHA, 50 ng/ml of LPS, or 10 ng/ml of IFNγ (200 U/ml) for four hours. Samples of culture supernatant fluids were tested in duplicate for the presence of IL-2, IL-4, IL-6, IL-10, IL-12, and TNFα using a Meso Scale Discovery (MSD, Gaithersburg, Md.) panel.\nPeptideX1 and PeptideX2 were incubated with peripheral blood cells from donor D67 as described above and tested in duplicate for IL-6 activity. […]"}, "[1]": {"system": "macrophage cell line (THP-1)", "experiment": "Flow cytometry binding to macrophage/monocyte cell line with or without LPS", "details": "presence or absence of LPS"}, "E. coli": {"system": "E. coli", "experiment": "E. coli growth (CFUs) incubated with human peripheral blood leukocytes with and without PeptideX2", "assay_type": "cell-based", "details": "E. coli with WBCs and PeptideX2; 10 hours; FIG. 11", "protocol": "To test this hypothesis, human peripheral white cells were incubated with E. coli in the presence and absence of PeptideX2.\nHuman peripheral blood leukocytes (WBCs) were obtained from healthy donors with informed consent. Three test groups were inoculated with E. coli and incubated for 10 hours. The three groups were E. coli with serum alone, E. coli with WBCs, and E. coli with WBCs with PeptideX2. Samples were taken at 0, 2, 4, 6 and 10 hours and plated for colony forming units (CFUs). […] In a separate but similar experiment, nine test groups (E. coli with serum alone, E. coli with WBCs, and E. coli with WBCs with PeptideX2 at each of seven indicated concentrations, see FIG. 12) were incubated over a time course of three hours, with quantification of bacterial CFU performed at times 0, 1.5 and 3 hours (FIG. 12)."}}}
{"sequence": "KSIAYLQMNSLK (Peptide fragment) [PeptideX2]", "values": [{"measurement": "IL-6 production compared to peptideX1", "setting": "peripheral blood cells; cells from donor #67, FIG. 7", "result": "significantly greater"}, {"measurement": "IL-6 production", "setting": "peripheral blood cells; cells from donor #85, PeptideX2 0-200 ug/ml, FIG. 9", "result": "enhanced production"}, {"measurement": "binding to monocyte cell line", "setting": "[1]", "result": "without any binding"}, {"measurement": "E. coli CFUs", "setting": "E. coli", "result": "rapid rise in CFUs"}]}
